PubChem BioAssay (NCI)
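Dose response: 5 concentrations. Exposure: 48 h. Format: 96-well plates. Endpoint: linear interpolation; highest concentration if not reached. At the GI50, growth is halved. TGI is the concentration that stops growth completely.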

Legend:
Experiment in all cases: DTP human tumour cell line panel, 48 h
786-0 renal = system: 786-0 renal
A498 renal = system: A498 renal
A549 NSCLC = system: A549 NSCLC
ACHN renal = system: ACHN renal
BT-549 breast = system: BT-549 breast
CAKI-1 renal = system: CAKI-1 renal
CCRF-CEM leukemia = system: CCRF-CEM leukemia
COLO 205 colon = system: COLO 205 colon
DU-145 prostate = system: DU-145 prostate
EKVX NSCLC = system: EKVX NSCLC
HCC-2998 colon = system: HCC-2998 colon
HCT-116 colon = system: HCT-116 colon
HCT-15 colon = system: HCT-15 colon
HL-60(TB) leukemia = system: HL-60(TB) leukemia
HOP-62 NSCLC = system: HOP-62 NSCLC
HOP-92 NSCLC = system: HOP-92 NSCLC
HS 578T breast = system: HS 578T breast
HT29 colon = system: HT29 colon
IGROV1 ovarian = system: IGROV1 ovarian
K-562 leukemia = system: K-562 leukemia
KM12 colon = system: KM12 colon
LOX IMVI melanoma = system: LOX IMVI melanoma
M14 melanoma = system: M14 melanoma
MALME-3M melanoma = system: MALME-3M melanoma
MCF7 breast = system: MCF7 breast
MDA-MB-231 breast = system: MDA-MB-231 breast
MDA-MB-435 = system: MDA-MB-435
MDA-MB-468 breast = system: MDA-MB-468 breast
MOLT-4 leukemia = system: MOLT-4 leukemia
NCI-H226 lung = system: NCI-H226 lung
NCI-H23 lung = system: NCI-H23 lung
NCI-H460 lung = system: NCI-H460 lung
NCI-H522 lung = system: NCI-H522 lung
NCI/ADR-RES ovarian = system: NCI/ADR-RES ovarian
OVCAR-3 ovarian = system: OVCAR-3 ovarian
OVCAR-4 ovarian = system: OVCAR-4 ovarian
OVCAR-5 ovarian = system: OVCAR-5 ovarian
OVCAR-8 ovarian = system: OVCAR-8 ovarian
PC-3 prostate = system: PC-3 prostate
RPMI-8226 leukemia = system: RPMI-8226 leukemia
RXF 393 renal = system: RXF 393 renal
SF-268 CNS = system: SF-268 CNS
SF-295 CNS = system: SF-295 CNS
SF-539 CNS = system: SF-539 CNS
SK-MEL-2 melanoma = system: SK-MEL-2 melanoma
SK-MEL-28 melanoma = system: SK-MEL-28 melanoma
SK-MEL-5 melanoma = system: SK-MEL-5 melanoma
SK-OV-3 ovarian = system: SK-OV-3 ovarian
SN12C renal = system: SN12C renal
SNB-19 CNS = system: SNB-19 CNS
SNB-75 CNS = system: SNB-75 CNS
SR leukemia = system: SR leukemia
SW-620 colon = system: SW-620 colon
T-47D breast = system: T-47D breast
TK-10 renal = system: TK-10 renal
U251 CNS = system: U251 CNS
UACC-257 melanoma = system: UACC-257 melanoma
UACC-62 melanoma = system: UACC-62 melanoma
UO-31 renal = system: UO-31 renal

Work on `CCN1C(=O)N(CC)C2NNC(Sc3c(C(=O)O)c4ccccc4n(CCC(C)C)c3=O)=NC21` (stereo not drawn) yielded a GI50 (786-0 renal) of 14.5 µM, a TGI (786-0 renal) of 62.8 µM and a GI50 (A498 renal) of 19.6 µM. For the same compound, the TGI (A498 renal) was 54.3 µM, the GI50 (A549 NSCLC) was 6.07 µM and the TGI (A549 NSCLC) was 24.2 µM. The GI50 (ACHN renal) was 5.75 µM, the TGI (ACHN renal) was 19.4 µM and the GI50 (BT-549 breast) was 35.8 µM. For the same compound, the TGI (BT-549 breast) was 91.4 µM, the GI50 (CAKI-1 renal) was 5.21 µM and the TGI (CAKI-1 renal) was 19.8 µM. For the same compound, the GI50 (CCRF-CEM leukemia) was 4.62 µM, the TGI (CCRF-CEM leukemia) was over 100 µM and the GI50 (COLO 205 colon) was 3.65 µM. The TGI (COLO 205 colon) was 11.6 µM, the GI50 (DU-145 prostate) was 5.64 µM and the TGI (DU-145 prostate) was 65.7 µM. For the same compound, the GI50 (EKVX NSCLC) was 3.5 µM, the TGI (EKVX NSCLC) was 17.7 µM and the GI50 (HCC-2998 colon) was 2.41 µM. For the same compound, the TGI (HCC-2998 colon) was 7.91 µM, the GI50 (HCT-116 colon) was 4.12 µM and the TGI (HCT-116 colon) was over 100 µM. For the same compound, the GI50 (HCT-15 colon) was 2.75 µM, the TGI (HCT-15 colon) was 13.7 µM and the GI50 (HL-60(TB) leukemia) was 3.12 µM. It also gave a TGI (HL-60(TB) leukemia) of 34.1 µM, a GI50 (HOP-62 NSCLC) of 6.68 µM and a TGI (HOP-62 NSCLC) of 43 µM. The GI50 (HOP-92 NSCLC) was 16.5 µM, the TGI (HOP-92 NSCLC) was 47.4 µM and the GI50 (HS 578T breast) was 3.37 µM. The TGI (HS 578T breast) was 31 µM, the GI50 (HT29 colon) was 3.33 µM and the TGI (HT29 colon) was 13.3 µM. The GI50 (IGROV1 ovarian) was 3.06 µM, the TGI (IGROV1 ovarian) was 18.1 µM and the GI50 (K-562 leukemia) was 3.69 µM. It also gave a TGI (K-562 leukemia) of over 100 µM, a GI50 (KM12 colon) of 4.12 µM and a TGI (KM12 colon) of 53.5 µM. For the same compound, the GI50 (LOX IMVI melanoma) was 5.11 µM, the TGI (LOX IMVI melanoma) was 18.5 µM and the GI50 (M14 melanoma) was 8.47 µM. It also gave a TGI (M14 melanoma) of over 100 µM, a GI50 (MALME-3M melanoma) of 11.2 µM and a TGI (MALME-3M melanoma) of 28.3 µM. For the same compound, the GI50 (MCF7 breast) was 0.878 µM, the TGI (MCF7 breast) was 15.1 µM and the GI50 (MDA-MB-231 breast) was 3.69 µM. The TGI (MDA-MB-231 breast) was 15.7 µM, the GI50 (MDA-MB-435) was 2.13 µM and the TGI (MDA-MB-435) was 5.5 µM. For the same compound, the GI50 (MDA-MB-468 breast) was 0.386 µM, the TGI (MDA-MB-468 breast) was 3.33 µM and the GI50 (MOLT-4 leukemia) was 4.79 µM. The TGI (MOLT-4 leukemia) was over 100 µM, the GI50 (NCI-H226 lung) was 3.87 µM and the TGI (NCI-H226 lung) was 21 µM. The GI50 (NCI-H23 lung) was 4.34 µM, the TGI (NCI-H23 lung) was 16.6 µM and the GI50 (NCI-H460 lung) was 3.43 µM. It also gave a TGI (NCI-H460 lung) of 13.3 µM, a GI50 (NCI-H522 lung) of 2.52 µM and a TGI (NCI-H522 lung) of 8.42 µM. For the same compound, the GI50 (NCI/ADR-RES ovarian) was 2.25 µM, the TGI (NCI/ADR-RES ovarian) was 5.8 µM and the GI50 (OVCAR-3 ovarian) was 5 µM. For the same compound, the TGI (OVCAR-3 ovarian) was 21.3 µM, the GI50 (OVCAR-4 ovarian) was 17.9 µM and the TGI (OVCAR-4 ovarian) was over 100 µM. For the same compound, the GI50 (OVCAR-5 ovarian) was 3.06 µM, the TGI (OVCAR-5 ovarian) was 17.5 µM and the GI50 (OVCAR-8 ovarian) was 5.54 µM. The TGI (OVCAR-8 ovarian) was 51.7 µM, the GI50 (PC-3 prostate) was 6.19 µM and the TGI (PC-3 prostate) was over 100 µM. The GI50 (RPMI-8226 leukemia) was 4.61 µM, the TGI (RPMI-8226 leukemia) was over 100 µM and the GI50 (RXF 393 renal) was 2.16 µM. For the same compound, the TGI (RXF 393 renal) was 9.31 µM, the GI50 (SF-268 CNS) was 10.4 µM and the TGI (SF-268 CNS) was over 100 µM. The GI50 (SF-295 CNS) was 3.3 µM, the TGI (SF-295 CNS) was 13.2 µM and the GI50 (SF-539 CNS) was 2.11 µM. For the same compound, the TGI (SF-539 CNS) was 5.63 µM, the GI50 (SK-MEL-2 melanoma) was 9.35 µM and the TGI (SK-MEL-2 melanoma) was 31.2 µM. The GI50 (SK-MEL-28 melanoma) was 9.69 µM, the TGI (SK-MEL-28 melanoma) was 31.4 µM and the GI50 (SK-MEL-5 melanoma) was 4.37 µM. It also gave a TGI (SK-MEL-5 melanoma) of 16.4 µM, a GI50 (SK-OV-3 ovarian) of 7.58 µM and a TGI (SK-OV-3 ovarian) of 69.1 µM. It also gave a GI50 (SN12C renal) of 4.09 µM, a TGI (SN12C renal) of 18.2 µM and a GI50 (SNB-19 CNS) of 4.56 µM. The TGI (SNB-19 CNS) was 25.1 µM, the GI50 (SNB-75 CNS) was 2.24 µM and the TGI (SNB-75 CNS) was 9.19 µM. For the same compound, the GI50 (SR leukemia) was 22 µM, the TGI (SR leukemia) was over 100 µM and the GI50 (SW-620 colon) was 6.5 µM. For the same compound, the TGI (SW-620 colon) was 31 µM, the GI50 (T-47D breast) was 20.5 µM and the TGI (T-47D breast) was over 100 µM. The GI50 (TK-10 renal) was 17.5 µM, the TGI (TK-10 renal) was 63.8 µM and the GI50 (U251 CNS) was 4.33 µM. It also gave a TGI (U251 CNS) of 36.9 µM, a GI50 (UACC-257 melanoma) of 19.6 µM and a TGI (UACC-257 melanoma) of 71.5 µM. For the same compound, the GI50 (UACC-62 melanoma) was 4.11 µM, the TGI (UACC-62 melanoma) was 19.8 µM and the GI50 (UO-31 renal) was 4.07 µM. The TGI (UO-31 renal) was 22.5 µM.
